From the supplement of paper PMC11451515

Legend:
[1] = system: P12-Ichikawa; experiment: cell viability relative to DMSO control; higher = less cytotoxic; details: HPLM + 10% dialyzed FBS, 48 h
Outline: (§1)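 Library compounds in DMSO were pin-dosed in an 11-point threefold series (47 μM to 0.79 nM) onto leukemia cells in 1536-well plates (5 μl). Plates held 500 cells/well of NOMO1 or SEM or 1000 cells/well of P12-Ichikawa, each adapted for at least four passages in each medium. Luminescence was read with CellTiter-Glo One after 48 h at 37°C. Viability means the per-plate percentage relative to DMSO wells, using cell-free wells as background.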

[2] = system: NOMO1; experiment: as above; details: 48 h
Outline: as §1

[3] = system: SEM cells; experiment: as above; details: 48 h
Outline: as §1

[4] = system: P12-Ichikawa; experiment: AUC of viability dose-response curve (% viability x log10 dose units); higher = less sensitive; details: 48 h
Outline: (§2)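 Library compounds in DMSO were applied for 48 h at 37°C at 11 threefold doses (47 μM to 0.79 nM) to medium-adapted leukemia cells in 1536-well plates holding 500 or 1000 cells/well. Luminescence from CellTiter-Glo One was normalised plate by plate against DMSO and cell-free wells. Area under the curve came from trapezoidal integration of a log-logistic fit, after scaling curves that rose above full viability and discarding those that failed quality control. The fit had four parameters and used log10 doses.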

[5] = system: NOMO1; experiment: as above; details: 48 h
Outline: as §2

[6] = system: SEM cells; experiment: as above; details: 48 h
Outline: as §2

Cc1ccc(NC(=O)Nc2cc(C(F)(F)F)ccc2F)cc1Nc1ccc2c(c1)NC(=O)/C2=C\c1ccc[nH]1
Details	AUC of viability dose-response curve	cell viability [%]
[1], 0.000781 µM	–	122
[1], 0.00234 µM	–	123
[1], 0.00702 µM	–	133
[1], 0.0211 µM	–	133
[1], 0.0632 µM	–	131
[1], 0.19 µM	–	143
[1], 0.569 µM	–	139
[1], 1.71 µM	–	134
[1], 5.12 µM	–	128
[1], 15.4 µM	–	137
[1], 46.1 µM	–	70.3
[4], HPLM + 10% dialyzed FBS	466	–
[4], RPMI 5 mM glucose + 10% FBS	462	–
[4], RPMI 5 mM glucose + 10% dialyzed FBS	454	–
[5], HPLM + 10% dialyzed FBS	455	–
[5], RPMI 5 mM glucose + 10% FBS	460	–
[5], RPMI 5 mM glucose + 10% dialyzed FBS	449	–
[6], HPLM + 10% dialyzed FBS	439	–
[6], RPMI 5 mM glucose + 10% FBS	440	–
[6], RPMI 5 mM glucose + 10% dialyzed FBS	428	–

cell viability [%]
Details	HPLM + 10% dialyzed FBS	RPMI 5 mM glucose + 10% FBS	RPMI 5 mM glucose + 10% dialyzed FBS
[2], 0.000781 µM	–	108	116
[2], 0.00234 µM	–	126	124
[2], 0.00702 µM	–	118	140
[2], 0.0211 µM	–	124	140
[2], 0.0632 µM	–	133	149
[2], 0.19 µM	–	139	150
[2], 0.569 µM	–	149	149
[2], 1.71 µM	–	161	160
[2], 5.12 µM	–	136	154
[2], 15.4 µM	–	132	115
[2], 46.1 µM	–	40.4	28.1
[3], 0.000781 µM	108	–	120
[3], 0.00234 µM	131	–	116
[3], 0.00702 µM	121	–	122
[3], 0.0211 µM	115	–	111
[3], 0.0632 µM	118	–	138
[3], 0.19 µM	127	–	139
[3], 0.569 µM	131	–	124
[3], 1.71 µM	120	–	124
[3], 5.12 µM	111	–	102
[3], 15.4 µM	87.6	–	76.2
[3], 46.1 µM	16.2	–	4.96

O=C(/C=C/C=C/c1ccc2c(c1)OCO2)N1CCCCC1
cell viability [%], [3]
Details	HPLM + 10% dialyzed FBS	RPMI 5 mM glucose + 10% dialyzed FBS
0.000781 µM	129	114
0.00234 µM	119	129
0.00702 µM	125	103
0.0211 µM	127	157
0.0632 µM	139	146
0.19 µM	128	129
0.569 µM	116	150
1.71 µM	133	131
5.12 µM	132	167
15.4 µM	119	140
46.1 µM	87.1	108

AUC of viability dose-response curve
Details	[4]	[5]	[6]
HPLM + 10% dialyzed FBS	446	429	466
RPMI 5 mM glucose + 10% FBS	463	444	448
RPMI 5 mM glucose + 10% dialyzed FBS	467	448	456
